The values that follow come from patent US20050232891A1, “Methods of treating skin with diphosphonate derivatives” (ILEX Products Inc., priority 2001, published 2005).

A short description of data set [1]: Percutaneous absorption of Apomine: plasma level after topical application. Format: in vivo, female Swiss nude (nu/nu) mice. The following applies: female, Swiss nude (nu/nu), mouse, three hours after the last application. On the procedure:
Plasma concentrations of Apomine are measured with a Hewlett Packard gas chromatograph using a nitrogen phosphorus detector and HP-5 15 m×0.32 mm column. Alberts et al., 2001). Apomine is extracted from plasma with methyl t-butyl ether (MTBE). To 250 μl of plasma sample, 10 μl of a methanolic solution of the internal standard (n-propyl phoposhonate analog of Apomine) at a final concentration of 4 μg/ml are added and mixed by vortexing. The compound and internal standard are extracted with 500 μl MTBE and 30 sec vigorous shaking. The organic layer obtained by centrifugation (5 min at 13,000 rpm) is dried under nitrogen and reconstituted in 250 μl MTBE of which 2 μl is injected with an autoampler for analysis. A calibration curve is established with plasma from untreated mice spiked with different concentrations of Apomine. The calibration curve is used to interpolate the concentrations of Apomine in the samples using the peak area ratio values.
Apomine (1 mg) was topically applied to five to six week old female Swiss nude (nu/nu) mice by application of 20 μl of a 50 mg/ml solution of Apomine in acetone. Treatment was continued daily for 24 days. Three hours after the last application the mice were sacrificed and plasma Apomine levels were measured. The plasma concentration was 1.12±0.10 μg/ml plasma (n=6), which is 2 μM Apomine. […]

The conditions of data set [2]: patients, 75 mg/m^2 twice a day orally for 14 days; cited from earlier work.
Another data set has as its system HepG2 cells. In words: Stimulation of collagen expression (cDNA microarray), Apomine treated versus control HepG2 cells. Format: cell-based, human. The note with it: gene expression; for fold induction at 1 µM: Homo sapiens, HepG2, 1 μM Apomine vs ethanol vehicle control. On the procedure:
HepG2 cells were grown in Dulbecco's modified Eagle medium (DMEM) supplemented with 10% FBS. Cells were harvested when they were about 80-90% confluent and were directly subjected to RNA isolation. Treated cells were incubated with 1 μM Apomine and control cells were incubated with a volume of ethanol used as vehicle for the Apomine.
DNA microarray slides used in this study were fabricated in the microarray core facilities at the Arizona Cancer Center (Calaluce et al., 2001). Each slide has 5760 spots divided into 4 blocks. Each block contains the same 8 ice plant genes from Mesembryanthemum crystallinum and 23 different housekeeping genes as references for data normalization. Overall, each slide has 5289 unique human cDNA sequences.
Poly(A)^+ RNA was directly isolated from cell pellets using the FastTrack 2.0 Kit (Invitrogen, Carsbad, Calif.) following the instruction manual provided by the manufacturer. Each RNA sample was inspected by denaturing agarose gel electrophoresis to ensure the quality of the preparation. Labeling and purification of cDNA probes were carried out using the MICROMAX direct cDNA microarray system (NEN Life Science Products, Boston, Mass.). Two to four micrograms of the poly(A)+ RNA samples were used for each labeling. Probes for Apomine treated HepG2 cells were labeled with Cyanine 5 (Cy5) and probes for HeLa cell was labeled with Cyanine 3 (Cy3). For investigation of control Hep2G cells, these cells were labeled with Cy3 and probes for HeLa cells were labeled with Cy5. Purified cDNA probes were dried and dissolved in 15 μL of Hybridization Buffer (included in the MICROMAX direct cDNA microarray system kit). The probes were then denatured by heating at 95° C. for 2 min and applied to the array area of a pre-denatured microarray slide. The microarray slide was covered with a […] slide cover slip and incubated in a HybChamber (GeneMachines, San Carlos, Calif.) at 62° C. for overnight. On the second day, the slide was washed in 0.5×SSC, 0.01% SDS for 5 min, 0.06×SSC, 0.01% SDS for 5 min, and 0.06×SCC for 2 min. Finally, the slide was dried by spinning at 500 g for 1 min and scanned in a dual-laser (635 nm for red fluorescent Cy5 and 532 nM for green fluorescent Cy3) microarray scanner (GenePix 4000, Axon Instruments, Foster City, Calif.).
Fluorescence intensities for both dyes (Cy3 and Cy5) and local background subtracted values for individual spots were obtained using the GenePix 4000 microarray scanner and accompanying software (Axon Instruments, Foster City, Calif.). The data were imported into Microsoft Excel spreadsheets for analysis. Defective spots, i.e., ones that are sub-standard on the scanned image or have negative background subtracted values, were first filtered. To minimize the effects of measurement variations introduced by artificial sources during experiments, only spots that had significant signals in both channels were included. The determination of this significance is based on signal intensities of non-homologous ice plant genes. Generally, if the signal intensity of a spot is less than the average of ice plant spots, the signal was considered as non-significant. In this analysis the significance cutoff for signal to background ratio as 1.4 was determined empirically. Thus, a spot was excluded in further analysis if it has a signal to background ratio less than 1.4 in both channels. For each spot, the median of ratios (the median of the pixel-by-pixel ratios of pixel intensities that have the median background intensity subtracted) was used in subsequent analysis. Spots representing housekeeping genes were used to normalize the entire slide so that all slides can be compared directly. For each pancreatic cell line, at least two hybridizations were carried out. The average of median ratios from replicates was calculated for each spot. […]

Read-outs that look alike come from different tables or passages of the source.

On to `CC(C)OP(=O)(OC(C)C)C(Cc1cc(C(C)(C)C)c(O)c(C(C)(C)C)c1)P(=O)(OC(C)C)OC(C)C` [Apomine, tetraisopropyl 2-(3,5-di-tert-butyl-4-hydroxyphenyl)-ethylidene-1,1-diphosphonate], for which the concentration at 3 h in data set [1] (1 mg topically (20 μl of 50 mg/ml in acetone) daily for 24 days, n=6) turned out to be 1120 ± 100 ng/mL; in data set [1] (1 mg topically daily for 24 days) it was 2000 nM. For the same compound, the adverse effects result in data set [2] is recorded as “no adverse effects”. In addition, in the data set with HepG2 cells (1 μM Apomine vs ethanol vehicle control), the “Fold induction, Procollagen, type III” value stood at 6.49 fold. Further, the fold induction at 1 µM with HepG2 cells (read-out: Fold induction, Collagen, type I, alpha 2) was 1.65; in the data set with HepG2 cells (read-out: Fold induction, Collagen, type II, alpha 1), 5.5; in the data set on HepG2 cells (read-out: Fold induction, Collagen, type IV, alpha 4) it was 1.7; with HepG2 cells (read-out: Fold induction, Collagen, type IX, alpha 3), 1.4; in the data set on HepG2 cells (read-out: Fold induction, Collagen, type V, alpha 1), 1.42; in the data set on HepG2 cells (read-out: Fold induction, Collagen, type VI, alpha 2), 2.4. For the same compound, the fold induction at 1 µM in the data set on HepG2 cells (read-out: Fold induction, Collagen, type VI, alpha 3) is 1.16; in the data set on HepG2 cells (read-out: Fold induction, Collagen, type XI, alpha 1) it was 2.66; in the data set with HepG2 cells (read-out: Fold induction, Procollagen, type III), greater than 6.
